Legend:
Female rats = assay: Isovolumetric bladder model; format: in vivo, rat
Method: Female rats were anesthetized with urethane. Ureters were ligated and sectioned. A catheter was inserted through the urinary meatus into the bladder before urethral ligature. […] 10 or 45 or with 100 μL of vehicle, then with 100 μL of saline every 5 min until the occurrence of rhythmic bladder contraction (RBC). A maximal volume of 3 mL was infused. The intravesical pressure was followed during 1 h30 after RBC appearance. For each group, Threshold Volume (TV), Micturition Frequency (MF) and Amplitude of Micturition (AM) were measured during the whole period. […] No effect on the total MF (measured during 90 min) was observed.

Male Sprague-Dawley rats = assay: Chronic constriction injury model, mechanical allodynia (von Frey); format: in vivo, rat; conditions: 10 mg/kg i.v., 2 hours post-dosing, CCI rats
Method: Male Sprague-Dawley rats were used. Under pentobarbital anesthesia, the sciatic nerve was exposed at mid-thigh level (Bennett G J et al Pain. 33: 87-107, 1988). Four ligatures were loosely tied around the sciatic nerve of the left hind limb to induce enhancement of pain caused by nerve injury. Mechanical allodynia was evaluated by using a set of 8 manual von Frey monofilaments (0.4, 0.6, 1, 2, 4, 6, 8 and 15 g) 18 days after surgery and basal response was recorded.
On day 19 body weight was recorded and compounds 10 and 45 were administered by i.v. route at the dose of 10 mg/kg. 60, 120 and 180 min post dose, mechanical allodynia was tested by evaluation of the Paw Withdrawl Threshold (PWT) and % Maximum Possible Effect (MPE) was calculated according to the following formula: […]
The mechanical allodynia was tested 1 day before treatment and at 2 hours post-dosing. One-way ANOVA followed by Dunnett's test was applied for comparison between vehicle control and test compound treated groups. *p<0.05 is considered significant.

CYP 1A2 = CYP 1A2 (Homo sapiens, UniProt P05177); assay: CYP inhibition; format: in vitro ADME
CYP 2C19 = CYP 2C19 (Homo sapiens, UniProt P33261); assay: CYP inhibition; format: in vitro ADME
hERG channel = hERG channel (Homo sapiens, UniProt Q12809); assay: hERG binding
Microsome stability [1] = format: in vitro ADME; conditions: rat
Microsome stability [2] = format: in vitro ADME; conditions: human
TRPM8 [3] = target: T1, TRPM8 (Homo sapiens, UniProt Q7Z2W7); assay: cell-based
Text: Values were considered significant if the test compound mean was three or more standard deviations away from the positive control agonist mean.

TRPM8 [4] = target: T1, TRPM8; assay: HTS cell-based Ca2+ mobilization assay (FLIPR TETRA) in HEK293/hTRPM8 cells, agonist Cooling Agent 10; design: expressed in transfected cells; conditions: HEK293/hTRPM8, Cooling Agent 10 at EC80
Text: A functional cell-based assay for the identification of TRPM8 receptor antagonists, optimised to allow high throughput screening at FLIPR^TETRA, was developed in HEK293 cells by stable pure clone selection and functional characterization with a fluorescent calcium sensitive dye.
TRPM8 was cloned into the multiple cloning site of pcDNA3 mammalian expression vector; the obtained construct pcDNA3/hTRPM8 was fully sequence verified and used for the transfection of HEK293 cell line. HEK293 cells stably transfected with TRPM8 gene were maintained in Minimum essential medium. The cells were transfected with the pcDNA3/hTRPM8 vector by electroporation and then selected with medium containing 0.8 mg/ml G418 for 10-15 days.
The following commercial compounds were used as ligands:
Activator: Cooling Agent 10 (Takasago CAS N. 87061-04-9)
Blocker: Capsazepine (SIGMA cat #D_5879)
The experimental activities were performed using FLIPR^TETRA instruments.
HEK293 cells stably transfected with TRPM8 gene were maintained in Minimum essential medium.
The TRPM8 cell line was analysed for the response to a library of compounds using a Ca^2+ mobilization-dependent fluorescence signal in 384 wells microtiter plate format. The analysis was performed using the FLIPR^TETRA (MDC) with the ICCD Camera.
The execution of the assay involved the use of three microtiter plates:
1. Assay plate, containing cells loaded with dye and prepared as follows:
Cells were seeded at 15000 c/well in Poly-D-Lysine coated 384 wells Microtiter Plates in complete medium (25 μl/well).
24 h after seeding, the cell plates were washed with Tyrode assay buffer by the Microplate Washer and 10 μL of Tyrode assay buffer was left in each well.
Cells were then loaded with 10 μL/well of the Fluo-4 NW dye solution by CyBi®-Well pipettor. Each bottle of Fluo4-NW dye (Molecular Probes cat. #F36206, component A) was re-suspended in 8 mL of Tyrode assay buffer and supplemented with 100 μL of water-soluble probenecid (MolecularProbes cat.#F36206, component B).
Dye loaded cell plates were incubated for 1 h at room temperature.
2. Compound Dilution Plate (FIG. 1), containing diluted test compounds, formulated as follows: […]
Column 1: wells containing Assay Buffer plus DMSO 0.5% final
Columns 3-22: wells containing Assay Buffer plus 0.5% DMSO final. To these wells the compounds to be tested were added at 3× concentration.
Column 23: alternating wells of Max Signal Control in second injection (Assay buffer) and Min Signal Control in second injection (Antagonist Capsazepine IC100, 50 μM) in Assay buffer plus 0.5% DMSO final;
Column 24: wells containing Capsazepine (Antagonist) at 8 concentrations in duplicate at final concentrations of 50 μM, 25 μM, 6.25 μM, 3.15 μM, 1.56 μM, 780 nM, […] in Assay buffer plus 0.5% DMSO final.
3. Activator Plate (FIG. 2), containing agonist Cooling Agent 10 at EC80, formulated as follows:
Column 1: Cooling Agent 10 (Agonist) at 8 concentrations dose response in duplicate at final concentrations of 100 μM, 31.6 μM, 10 μM, 3.16 μM, 1 μM, 316 nM, 100 nM, 31.6 nM in Assay buffer;
Columns 2-24: Cooling Agent 10 (Agonist) at EC80 (3 fold concentrated, 20 μM final) in Assay buffer.
The test was carried out according to a procedure comprising the following steps:
1. The samples contained in the wells of the Compound Plate were added to the corresponding wells of the Assay Plate by the FLIPR^TETRA, thus resulting in the addition in Columns 3-22 of the test compounds at 3× concentration to the cells of the assay plates. No mixing was performed in the assay wells and the signal of the emitted fluorescence was recorded for 300 seconds. 2. The samples contained in the wells of the Activator Plate were added to the corresponding wells of the Assay Plate by the FLIPR^TETRA, thus resulting in the addition in Columns 3-22 of the Assay Plate of the agonist compound in addition to the test compounds. The signal of the emitted fluorescence was recorded for 180 seconds.

Plasma stability [5] = format: in vitro ADME; conditions: rat
Plasma stability [6] = format: in vitro ADME; conditions: human
[7] = intravesical, 3 times 100 μL containing 0.1 mg

T1 sequence (Q7Z2W7 whole entry): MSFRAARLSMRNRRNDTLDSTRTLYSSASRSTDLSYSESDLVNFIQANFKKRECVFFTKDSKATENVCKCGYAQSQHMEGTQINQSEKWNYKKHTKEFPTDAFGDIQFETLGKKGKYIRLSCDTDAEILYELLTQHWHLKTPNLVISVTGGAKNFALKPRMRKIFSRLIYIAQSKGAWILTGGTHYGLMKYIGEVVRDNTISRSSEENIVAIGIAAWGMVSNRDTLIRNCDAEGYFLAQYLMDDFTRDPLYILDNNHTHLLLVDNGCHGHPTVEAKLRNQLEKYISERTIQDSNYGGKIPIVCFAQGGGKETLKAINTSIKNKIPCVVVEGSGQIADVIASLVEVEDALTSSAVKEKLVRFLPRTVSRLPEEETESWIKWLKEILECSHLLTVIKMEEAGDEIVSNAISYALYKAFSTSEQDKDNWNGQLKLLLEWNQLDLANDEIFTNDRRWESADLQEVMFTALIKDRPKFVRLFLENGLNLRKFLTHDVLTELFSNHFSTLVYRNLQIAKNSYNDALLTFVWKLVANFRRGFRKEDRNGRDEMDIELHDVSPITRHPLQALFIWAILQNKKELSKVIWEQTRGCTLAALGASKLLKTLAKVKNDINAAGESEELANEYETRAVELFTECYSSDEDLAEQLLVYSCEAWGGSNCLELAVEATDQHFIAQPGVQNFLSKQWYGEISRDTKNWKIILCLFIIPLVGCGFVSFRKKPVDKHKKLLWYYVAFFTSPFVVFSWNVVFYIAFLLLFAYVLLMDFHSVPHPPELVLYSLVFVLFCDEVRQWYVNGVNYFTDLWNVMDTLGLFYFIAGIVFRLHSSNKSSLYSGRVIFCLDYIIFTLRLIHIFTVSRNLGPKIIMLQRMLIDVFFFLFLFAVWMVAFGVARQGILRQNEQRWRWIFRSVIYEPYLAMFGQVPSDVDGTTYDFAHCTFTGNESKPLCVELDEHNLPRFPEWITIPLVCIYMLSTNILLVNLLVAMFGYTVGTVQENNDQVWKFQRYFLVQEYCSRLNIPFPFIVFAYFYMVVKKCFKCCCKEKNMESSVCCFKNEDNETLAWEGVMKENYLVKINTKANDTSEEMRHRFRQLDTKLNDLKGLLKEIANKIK
CYP 2C19, sequence (P33261 whole entry): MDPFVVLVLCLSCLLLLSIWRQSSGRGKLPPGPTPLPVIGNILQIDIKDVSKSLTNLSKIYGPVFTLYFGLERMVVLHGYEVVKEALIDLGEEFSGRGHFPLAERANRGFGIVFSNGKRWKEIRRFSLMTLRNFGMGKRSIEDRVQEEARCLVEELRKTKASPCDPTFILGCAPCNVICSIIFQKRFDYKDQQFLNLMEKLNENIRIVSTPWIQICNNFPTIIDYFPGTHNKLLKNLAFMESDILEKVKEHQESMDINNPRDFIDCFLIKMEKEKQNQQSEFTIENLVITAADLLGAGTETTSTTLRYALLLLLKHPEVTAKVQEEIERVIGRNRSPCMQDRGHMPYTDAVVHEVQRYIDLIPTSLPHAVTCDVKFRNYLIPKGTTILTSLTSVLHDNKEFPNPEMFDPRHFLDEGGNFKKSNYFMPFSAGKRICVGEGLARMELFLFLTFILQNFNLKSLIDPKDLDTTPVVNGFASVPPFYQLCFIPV
hERG channel, sequence (Q12809 whole entry): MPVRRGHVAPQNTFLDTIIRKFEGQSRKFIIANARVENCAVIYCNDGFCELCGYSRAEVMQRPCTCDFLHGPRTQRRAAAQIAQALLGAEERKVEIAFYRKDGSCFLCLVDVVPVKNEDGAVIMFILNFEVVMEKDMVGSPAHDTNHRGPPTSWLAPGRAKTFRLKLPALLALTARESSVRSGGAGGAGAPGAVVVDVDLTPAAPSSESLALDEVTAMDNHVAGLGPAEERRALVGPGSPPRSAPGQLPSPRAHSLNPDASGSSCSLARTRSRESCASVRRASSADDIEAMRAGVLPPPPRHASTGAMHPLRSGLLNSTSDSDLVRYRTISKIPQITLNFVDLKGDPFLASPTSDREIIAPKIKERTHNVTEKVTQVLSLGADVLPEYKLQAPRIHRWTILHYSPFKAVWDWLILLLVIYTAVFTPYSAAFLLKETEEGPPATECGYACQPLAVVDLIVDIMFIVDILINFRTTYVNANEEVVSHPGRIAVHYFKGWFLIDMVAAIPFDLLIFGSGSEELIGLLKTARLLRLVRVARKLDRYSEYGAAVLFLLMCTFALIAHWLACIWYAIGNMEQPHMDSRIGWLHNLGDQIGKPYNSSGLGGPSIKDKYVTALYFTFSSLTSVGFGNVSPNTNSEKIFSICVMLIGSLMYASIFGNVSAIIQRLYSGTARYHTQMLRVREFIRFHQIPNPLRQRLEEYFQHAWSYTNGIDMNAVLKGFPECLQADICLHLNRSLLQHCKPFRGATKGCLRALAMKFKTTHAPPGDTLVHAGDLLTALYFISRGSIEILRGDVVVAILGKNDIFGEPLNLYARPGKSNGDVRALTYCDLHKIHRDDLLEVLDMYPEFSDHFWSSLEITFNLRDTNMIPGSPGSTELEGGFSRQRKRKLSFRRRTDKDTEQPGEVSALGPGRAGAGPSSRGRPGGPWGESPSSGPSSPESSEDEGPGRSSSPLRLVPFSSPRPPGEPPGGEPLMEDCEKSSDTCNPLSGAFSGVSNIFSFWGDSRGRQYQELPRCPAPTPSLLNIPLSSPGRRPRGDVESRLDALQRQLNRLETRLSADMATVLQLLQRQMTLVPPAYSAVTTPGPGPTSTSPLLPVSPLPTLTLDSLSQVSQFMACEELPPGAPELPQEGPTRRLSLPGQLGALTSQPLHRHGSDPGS
CYP 1A2, sequence (P05177 whole entry): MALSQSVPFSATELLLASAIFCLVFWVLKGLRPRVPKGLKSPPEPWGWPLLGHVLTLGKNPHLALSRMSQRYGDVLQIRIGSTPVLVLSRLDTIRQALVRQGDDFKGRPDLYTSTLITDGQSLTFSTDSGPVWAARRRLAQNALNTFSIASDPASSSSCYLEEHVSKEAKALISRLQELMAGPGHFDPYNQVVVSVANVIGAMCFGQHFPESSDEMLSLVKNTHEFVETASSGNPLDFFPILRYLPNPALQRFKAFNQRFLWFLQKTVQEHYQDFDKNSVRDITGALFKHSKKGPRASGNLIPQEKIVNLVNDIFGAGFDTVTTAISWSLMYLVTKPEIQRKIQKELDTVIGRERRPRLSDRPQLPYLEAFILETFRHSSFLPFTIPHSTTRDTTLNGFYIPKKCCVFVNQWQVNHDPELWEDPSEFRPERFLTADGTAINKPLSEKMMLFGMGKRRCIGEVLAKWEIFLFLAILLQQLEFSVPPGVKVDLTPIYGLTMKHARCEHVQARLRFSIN

| Compound | reduction of Micturition Frequency (MF) (Female rats; 10 mg/kg i.v., first 30 min of the experiment) | continuous rhythmic bladder contraction (RBC) induced by filling with saline (Female rats; intravesical route, 2.3 mg/rat) | Amplitude of Micturition (AM) (Female rats; [7]) | Threshold Volume (TV) (Female rats; [7]) | effect on the total Micturition Frequency (MF) (Female rats; intravesical, 3 times 100 μL containing 0.1 mg, measured during 90 min) | anti-allodynic activity, mechanical allodynia (PWT, % MPE) (Male Sprague-Dawley rats) | CYP (% inhibition) @10 μM, 1A2 (CYP 1A2) | CYP (% inhibition) @10 μM, 2C19 (CYP 2C19) | hERG binding @10 μM (hERG channel) | Microsome stability (% remaining) @1 μM (Microsome stability [1]) | Microsome stability (% remaining) @1 μM (Microsome stability [2]) | IC50 (TRPM8 [3]) | IC50 (TRPM8 [4]) | Plasma stability (% remaining) @10 μM (Plasma stability [5]) | Plasma stability (% remaining) @10 μM (Plasma stability [6]) |
| --- | --- | --- | --- | --- | --- | --- | --- | --- | --- | --- | --- | --- | --- | --- | --- |
| CCOC(=O)c1sc(-c2cccc(F)c2)nc1O [Compound 10, ethyl 2-(3-fluorophenyl)-4-hydroxy-1,3-thiazole-5-carboxylate] | about 36% | completely abolished | did not change | 1.5 mL | No effect | significant anti-allodynic activity | <5% | <5% | No effect | 4% | 5% | 0.0002 µM | 1 µM |  |  |
| O=C(O)c1sc(-c2ccc(Cl)cc2)nc1OCc1ccc(Cl)cc1 [Compound 45, 4-[(4-chlorobenzyl)oxy]-2-(4-chlorophenyl)-1,3-thiazole-5-carboxylic acid] |  |  |  |  |  | significant anti-allodynic activity | <5% | <5% | No effect |  |  | 1 µM | 0.0002 µM | 9% | 1% |

Reference: patent US9585875B2, “TRPM8 antagonists” (Dompé S.P.A., priority 2011, dated 2017)
